# Test results published in patent US12485169B2, “Compounds” (GREY WOLF THERAPEUTICS LIMITED, priority 2018, dated 2025).
# Target: T1, Purified ERAP1 (37-941)-10His (ERAP1) (Homo sapiens, UniProt Q9NZ08)
# T1 construct: Purified ERAP1 (37-941)-10His (ERAP1)
# Assay: ERAP1 mediated hydrolysis of an amide substrate (10-mer inhibition assay), biochemical system
# Conditions: 10-mer substrate, 23° C., 1 h, excitation 279 nm / emission 355 nm; read-out: IC50 vs Decapeptide WRVYEKC(Dnp)ALK-acid (where Dnp is Dinitrophenyl maleimide) (10-mer)
# T1 sequence (Q9NZ08 37-941): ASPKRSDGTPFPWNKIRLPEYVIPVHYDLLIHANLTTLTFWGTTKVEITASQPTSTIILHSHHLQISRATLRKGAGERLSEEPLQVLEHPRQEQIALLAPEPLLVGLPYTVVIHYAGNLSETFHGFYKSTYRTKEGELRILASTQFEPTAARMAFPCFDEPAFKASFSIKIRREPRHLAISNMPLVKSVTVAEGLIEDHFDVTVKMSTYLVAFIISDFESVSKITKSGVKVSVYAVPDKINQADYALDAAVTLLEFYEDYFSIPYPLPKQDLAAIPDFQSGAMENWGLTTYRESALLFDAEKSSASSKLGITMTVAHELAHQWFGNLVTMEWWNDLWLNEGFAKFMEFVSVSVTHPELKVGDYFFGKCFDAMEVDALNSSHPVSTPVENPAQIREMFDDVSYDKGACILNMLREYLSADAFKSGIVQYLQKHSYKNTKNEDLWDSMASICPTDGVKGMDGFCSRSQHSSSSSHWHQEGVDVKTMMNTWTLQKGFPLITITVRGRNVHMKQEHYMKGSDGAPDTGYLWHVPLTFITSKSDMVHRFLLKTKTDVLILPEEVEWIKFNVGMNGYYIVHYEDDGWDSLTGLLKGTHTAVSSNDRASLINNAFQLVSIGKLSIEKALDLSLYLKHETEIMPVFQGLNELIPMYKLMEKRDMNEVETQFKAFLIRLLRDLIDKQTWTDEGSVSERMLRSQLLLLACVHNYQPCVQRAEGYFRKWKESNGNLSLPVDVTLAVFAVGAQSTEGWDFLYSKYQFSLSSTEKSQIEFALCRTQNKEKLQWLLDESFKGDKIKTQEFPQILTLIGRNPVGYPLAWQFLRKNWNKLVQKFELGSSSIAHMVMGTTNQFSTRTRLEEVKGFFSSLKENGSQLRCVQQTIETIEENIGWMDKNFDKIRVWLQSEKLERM
row,SMILES,IC50 [nM]
1,"CCc1ccc(C(=O)O)cc1S(=O)(=O)Nc1cc(Cl)ccc1N1CCCCC1 [Example 216, 3-(N-(5-chloro-2-(piperidin-1-yl)phenyl)sulfamoyl)-4-ethylbenzoic acid]",< 500
2,"CCc1ccc(C(=O)O)cc1S(=O)(=O)Nc1cc(Cl)ccc1N1CCC(F)(F)CC1 [Example 217, 3-(N-(5-chloro-2-(4,4-difluoropiperidin-1-yl)phenyl)sulfamoyl)-4-ethylbenzoic acid]",< 500
3,"COc1ccc(C(=O)O)cc1S(=O)(=O)Nc1cc(Cl)ccc1N1CCC(F)(F)CC1 [Example 218, 3-(N-(5-chloro-2-(4,4-difluoropiperidin-1-yl)phenyl)sulfamoyl)-4-methoxybenzoic acid]",< 500
4,"COc1ccc(C(=O)O)cc1S(=O)(=O)Nc1cc(Cl)ccc1N1CCCC(F)(F)C1 [Example 219, 3-(N-(5-chloro-2-(3,3-difluoropiperidin-1-yl)phenyl)sulfamoyl)-4-methoxybenzoic acid]",< 500
5,"CCc1ccc(C(=O)O)cc1S(=O)(=O)Nc1cc(Cl)ccc1N1CCCC(F)(F)C1 [Example 220, 3-(N-(5-chloro-2-(3,3-difluoropiperidin-1-yl)phenyl)sulfamoyl)-4-ethylbenzoic acid]",< 500
6,"COc1ccc(C(=O)O)cc1S(=O)(=O)Nc1cc(C#N)ccc1N1CCC(F)(F)CC1 [Example 221, 3-(N-(5-cyano-2-(4,4-difluoropiperidin-1-yl)phenyl)sulfamoyl)-4-methoxybenzoic acid]",< 500
7,"CCc1ccc(C(=O)O)cc1S(=O)(=O)Nc1cc(C#N)ccc1N1CCC(F)(F)CC1 [Example 222, 3-(N-(5-cyano-2-(4,4-difluoropiperidin-1-yl)phenyl)sulfamoyl)-4-ethylbenzoic acid]",< 500
8,"COc1ccc(C(=O)O)cc1S(=O)(=O)Nc1cc(C#N)ccc1N1CCCC(O)C1 (stereo not shown) [Example 223, 3-(N-(5-cyano-2-(3-hydroxypiperidin-1-yl)phenyl)sulfamoyl)-4-methoxybenzoic acid]",< 500
9,"CCc1ccc(C(=O)O)cc1S(=O)(=O)Nc1cc(C#N)ccc1N1CCCC(O)C1 (stereo not shown) [Example 224, 3-(N-(5-cyano-2-(3-hydroxypiperidin-1-yl)phenyl)sulfamoyl)-4-ethylbenzoic acid]",< 500
10,"CS(=O)(=O)c1ccc(C(=O)O)cc1S(=O)(=O)Nc1cc(C(F)(F)F)ccc1N1CCCCC1 [Example 225, 4-(methylsulfonyl)-3-(N-(2-(piperidin-1-yl)-5-(trifluoromethyl)phenyl)sulfamoyl)benzoic acid]",> 5000
11,"O=C(O)c1ccc(OCC(F)(F)F)c(S(=O)(=O)Nc2cc(C(F)(F)F)ccc2N2CCCCC2)c1 [Example 227, 3-(N-(2-(piperidin-1-yl)-5-(trifluoromethyl)phenyl)sulfamoyl)-4-(2,2,2-trifluoroethoxy)benzoic acid]",< 5000
12,"CC(C)(O)c1ccc(C(=O)O)cc1S(=O)(=O)Nc1cc(C(F)(F)F)ccc1N1CCCCC1 [Example 228, 4-(2-hydroxypropan-2-yl)-3-(N-(2-(piperidin-1-yl)-5-(trifluoromethyl)phenyl)sulfamoyl)benzoic acid]",< 500
13,"O=C(O)c1ccc(CO)c(S(=O)(=O)Nc2cc(C(F)(F)F)ccc2N2CCCCC2)c1 [Example 229, 4-(hydroxymethyl)-3-(N-(2-(piperidin-1-yl)-5-(trifluoromethyl)phenyl)sulfamoyl)benzoic acid]",< 500
14,"CCc1ccc(C(=O)O)cc1S(=O)(=O)Nc1ccc(C(F)(F)F)cc1N1CCCCC1 [Example 230, 4-ethyl-3-(N-(2-(piperidin-1-yl)-4-(trifluoromethyl)phenyl)sulfamoyl)benzoic acid]",< 500
15,"CSc1ccc(C(=O)O)cc1S(=O)(=O)Nc1cc(C(F)(F)F)ccc1N1CCCCC1 [Example 232, 4-(methylthio)-3-(N-(2-(piperidin-1-yl)-5-(trifluoromethyl)phenyl)sulfamoyl)benzoic acid]",< 500
16,"COc1ccc(C(=O)O)cc1S(=O)(=O)Nc1cc(C#N)ccc1N1CCCC(F)(F)C1 [Example 233, 3-(N-(5-cyano-2-(3,3-difluoropiperidin-1-yl)phenyl)sulfamoyl)-4-methoxybenzoic acid]",< 500
17,"CCc1ccc(C(=O)O)cc1S(=O)(=O)Nc1cc(C#N)ccc1N1CCCC(F)(F)C1 [Example 234, 3-(N-(5-cyano-2-(3,3-difluoropiperidin-1-yl)phenyl)sulfamoyl)-4-ethylbenzoic acid]",< 500
18,"COc1ccc(C(=O)O)cc1S(=O)(=O)Nc1cc(C(F)(F)F)ccc1N1CCCC[C@H]1C [Example 235, I-4-methoxy-3-(N-(2-(2-methylpiperidin-1-yl)-5-(trifluoromethyl)phenyl)sulfamoyl)benzoic acid]",< 500

# Now from value to compound:
row,IC50 [nM],SMILES
1,< 500,"COc1ccc(C(=O)O)cc1S(=O)(=O)Nc1cc(C(F)(F)F)ccc1N1CCC(F)CC1 [Example 206, 3-(N-(2-(4-fluoropiperidin-1-yl)-5-(trifluoromethyl)phenyl)sulfamoyl)-4-methoxybenzoic acid]"
2,< 500,"COc1ccc(C(=O)O)cc1S(=O)(=O)Nc1cc(S(C)(=O)=O)ccc1N1CCCCC1 [Example 207, 4-methoxy-3-(N-(5-(methylsulfonyl)-2-(piperidin-1-yl)phenyl)sulfamoyl)benzoic acid]"
3,< 500,"COc1ccc(C(=O)O)cc1S(=O)(=O)Nc1cc(C(F)(F)F)ccc1N1CCC[C@@H](F)C1 [Example 208, I-3-(N-(2-(3-fluoropiperidin-1-yl)-5-(trifluoromethyl)phenyl)sulfamoyl)-4-methoxybenzoic acid]"
4,< 500,"COc1ccc(C(=O)O)cc1S(=O)(=O)Nc1cc(C(F)(F)F)ccc1N1CCC[C@H](F)C1 [Example 209, (S)-3-(N-(2-(3-fluoropiperidin-1-yl)-5-(trifluoromethyl)phenyl)sulfamoyl)-4-methoxybenzoic acid]"
5,< 500,"CCc1ccc(C(=O)O)cc1S(=O)(=O)Nc1cc(C(F)(F)F)ccc1N1CCC[C@H](F)C1 [Example 210, (S)-4-ethyl-3-(N-(2-(3-fluoropiperidin-1-yl)-5-(trifluoromethyl)phenyl)sulfamoyl)benzoic acid]"
6,< 500,"CCc1ccc(C(=O)O)cc1S(=O)(=O)Nc1cc(C(F)(F)F)ccc1N1CCC[C@@H](F)C1 [Example 211, I-4-ethyl-3-(N-(2-(3-fluoropiperidin-1-yl)-5-(trifluoromethyl)phenyl)sulfamoyl)benzoic acid]"
7,< 500,"COc1ccc(C(=O)O)cc1S(=O)(=O)Nc1cc(C(F)F)ccc1N1CCCCC1 [Example 212, 3-(N-(5-(difluoromethyl)-2-(piperidin-1-yl)phenyl)sulfamoyl)-4-methoxybenzoic acid]"
8,< 500,"CCc1ccc(C(=O)O)cc1S(=O)(=O)Nc1cc(C(F)F)ccc1N1CCCCC1 [Example 213, 3-(N-(5-(difluoromethyl)-2-(piperidin-1-yl)phenyl)sulfamoyl)-4-ethylbenzoic acid]"
9,< 500,"COc1ccc(C(=O)O)cc1S(=O)(=O)Nc1cc(-n2cnnn2)ccc1N1CCCCC1 [Example 214, 4-methoxy-3-(N-(2-(piperidin-1-yl)-5-(1H-tetrazol-1-yl)phenyl)sulfamoyl)benzoic acid]"
10,< 500,"CCc1ccc(C(=O)O)cc1S(=O)(=O)Nc1cc(C#N)ccc1N1CCCCC1 [Example 215, 3-(N-(5-cyano-2-(piperidin-1-yl)phenyl)sulfamoyl)-4-ethylbenzoic acid]"
